Test results published in patent US5541194A (priority 1987, dated 1996).
Where two headings read alike, the source gives them in different places.

Legend:
[1] = target: muscarinic receptors; assay: Radio ligand binding: displacement of muscarinic agonist 3H-Oxotremorine-M (3H-OXO-M) in rat cerebral cortex; parameters: species or system Hooded Lister rats; details: displacement of 2 nM 3H-OXO-M; rat cerebral cortex membranes; 37° C., 30 min; 2 mM magnesium chloride; ^+ tested as the oxalate salt, ^++ tested as the hydrochloride salt
[2] = target: muscarinic receptors; type: binding, Hooded Lister rats; details: displacement of 0.27 nM 3H-QNB; rat cerebral cortex membranes; 37° C., 30 min; ^+ tested as the oxalate salt, ^++ tested as the hydrochloride salt

With `c1cc(C2CN3CCC2CC3)on1` (racemic) [Example E1, (±) 3-(1,2-Oxazol-5-yl)-1-azabicyclo[2.2.2]octane] the IC50 [1] was 477 nM and the IC50 [2] was 15500 nM.

`Cc1cc(C2CN3CCC2CC3)on1` (racemic) [Example E6, (±)3-(3-Methyl-1,2-oxazol-5-yl)-1-azabicyclo[2.2.2]octane] was tested, and the IC50 [1] was 395 nM and the IC50 [2] was 4300 nM.

Work on `Cc1ncc(C2CN3CCC2CC3)o1` (racemic) [Example E7, (±) 3-(2-Methyl-1,3-oxazol-5-yl)-1-azabicyclo[2.2.2]octane] yielded an IC50 [1] of 105 nM and an IC50 [2] of 4400 nM.

`c1cc(C2CN3CCC2CC3)co1` (racemic) [Example E10, (±) 3-(Fur-3-yl)-1-azabicyclo[2.2.2]octane] showed an IC50 [1] of 834 nM and an IC50 [2] of 19500 nM.

`c1ncc(C2CN3CCC2CC3)o1` (racemic) [Example E11, (±) 3-(1,3-Oxazol-5-yl)-1-azabicyclo[2.2.2]octane] showed an IC50 [1] of 480 nM and an IC50 [2] of 24000 nM.

`c1ncc(C2CN3CCC2C3)o1` (racemic) [Example E12, (±) exo and endo-3-(1,3-Oxazol-5-yl)-1-azabicyclo[2.2.1]heptane] gave an IC50 [1] of 150 nM and an IC50 [2] of 29000 nM.

With `CCc1ncc(C2CN3CCC2C3)o1` (racemic) [Example E14, (±) 3-(2-Ethyl-1,3-oxazol-5-yl)-1-azabicyclo[2.2.1]heptane] the IC50 [1] was 800 nM and the IC50 [2] was 9600 nM.

In the case of `c1coc([C@@H]2CN3CC[C@@H]2C3)c1` (relative stereo) [Example E4, (±) exo-3-(Fur-2-yl)-1-azabicyclo[2.2.1]heptane], the IC50 [1] is reported as 88 nM and the IC50 [2] is reported as 7000 nM.

`Cc1ccc([C@@H]2CN3CC[C@@H]2C3)o1` (relative stereo) [Example E5, (±) exo-3-(5-Methyl-fur-2-yl)-1-azabicyclo[2.2.1]heptane] gave an IC50 [1] of 115 nM and an IC50 [2] of 3200 nM.

`Cc1ncc([C@@H]2CN3CC[C@@H]2C3)o1` (relative stereo) [Example E8A, (±) exo- and endo-3-(2-Methyl-1,3-oxazol-5-yl)-1-azabicyclo[2.2.1]heptane] gave an IC50 [1] of 24 nM and an IC50 [2] of 7500 nM.

In the case of `Cc1cc([C@@H]2CN3CC[C@@H]2C3)on1` (relative stereo) [Example E9, (±) exo-3-(3-Methyl-1,2-oxazol-5-yl)-1-azabicyclo[2.2.1]heptane], the IC50 [1] is reported as 102 nM and the IC50 [2] is reported as 7500 nM.

Work on `c1cc([C@@H]2CN3CC[C@@H]2C3)on1` (relative stereo) [Example E13, (±) exo-3-(1,2-Oxazol-5-yl)-1-azabicyclo[2.2.1]heptane] yielded an IC50 [1] of 173 nM and an IC50 [2] of 30300 nM.
